# Test results published in patent US20250073211A1, “USE OF ERGOTHIONEINE TO SUPPRESS DELETERIOUS EFFECTS OF SENESCENCE” (NANJING NUTRABUILDING BIO-TECH CO., LTD., priority 2022, published 2025).
# How the values were obtained:
# HDFn cells [1] = test: Senolytic Profile Assay (cell counts and senescence markers after 3 days of acute treatment at passage 31); type: cell-based, Human; conditions: for cell counts: 3 days of treatment; for Ki67-positive population: day 9 to 12 timepoint, 0 μM: 3.4%±1.5, p<0.001; for percentage of p21 positive HDFn cells / percentage of p16 positive HDFn cells: timepoint 1 (day 0 to 3); for percentage of p21 positive HDFn cells: 0 μM: 63.1%±9.3; for percentage of p16 positive HDFn cells: 0 μM: 67.8%±4.7
# Description: (§1) HDFn cells (C0045C, Thermo Scientific, US) were obtained and proliferated to passage 32 (population doubling 58) in standard DMEM proliferation medium (10% FBS) at standard culture conditions (37°° C., 20% O2, 5% CO2). At each passage, cells were cryopreserved and banked. The cells were deemed replicatively senescent at passage 32. When required, cryovial contents was thawed gradually into 5 ml pre-warmed 10% FBS media with gentle pipetting and centrifuged. The supernatant was discarded, and the cell pellet was resuspended into 10% media and cells were counted using a hemocytometer and trypan blue.
# Treatment conditions tested in this assay were 0, 3, 30 and 300 μM of EGT as an acute supplementation over 3 days in standard DMEM (10% FBS). Positive controls for senolytic activity were 13 μM of Navitoclax and 600 μM of Fisetin. A 0.1% DMSO condition was introduced as a vehicle control for Fisetin. At passage 31, the HDFn cells were seeded at 10,000 cells per well in triplicate wells onto 48-well plates. After 2 days of acclimatization, cells were treated for 3 days with the conditions above. The cells were then washed with PBS and fixed with 2% PFA. The wells were filled with PBS and stored at 4° C. until immunostaining. For β-galactosidase staining, the staining solution was added onto the cells immediately after fixation and incubated at 37° C. for 24 h. The staining solution was removed, and the wells filled with PBS until imaging. This was repeated for timepoints day 0 to 3, day 6 to 9, and day 9 to 12.
# (§2) The panel of senescence markers, Ki67, p16 and p21 were analyzed by immunohistochemical staining using an HRP/DAB kit (ab64264, Abcam, UK). • Antibody details • 1) Ki67—1:1000 dilution, anti-rabbit, ab92742, Abcam; • 2) p16—1:500 dilution, anti-rabbit, ab 108349, Abcam; • 3) p21—1:100 dilution, anti-rabbit, ab 109542, Abcam.
# (§3) The cells were counterstained with hematoxylin.
# (§4) The senescence-associated β-galactosidase solutions and staining was performed according to Dimri et al, A biomarker that identifies senescent human cells in culture and in aging skin in vivo, Proc. Natl. Acad. Sci. 1995 Sep. 26; 92 (20): 9363-9367. The cells were counterstained with Nuclear Fast Red.
# (§5) All staining were imaged on an EVOS XL core microscope at 100× magnification.
# (§6) The images were white balanced using a macro on ImageJ. Cells were manually counted using the cell counter plugin and recorded. Graphs and statistics were created using GraphPad Prism 5. For each dataset, a two-way ANOVA was performed with Bonferroni posthoc test against the untreated control. P-values on the graphs are shown as *p<0.05, ** p<0.01, *** p<0.001.
# HDFn cells [2] = test: Senostatic Profile Assay (senescence markers Ki67, p21, p16, SAβG under chronic supplementation); type: cell-based, Human; conditions: for percentage of SAβG positive HDFn cells: untreated 9.8%±2.7
# Description: as §1
# Treatment conditions tested in this assay were 0, 0.5, 3.0 and 30 μM of EGT as a constant supplementation in standard DMEM (10% FBS). HDFn cells were thawed at passage 20 and seeded at 1.5×10^5 cells per flask. Three flasks per condition were seeded. Media was changed every three days. At passages 22, 24, and 26, the HDFn cells were seeded onto 48-well plates at 10,000 cells per well in triplicates per flask, and cultured in DMEM media containing 0, 0.5, 3.0, and 30 μM of EGT, respectively. The cells were proliferated until 70% confluence or for 7 days. The cells were then washed with PBS and fixed with 2% PFA, and stored at 4° C. until immunostaining. For β-galactosidase staining, the staining solution was added onto the cells immediately after fixation and incubated at 37° C. for 24 h. The staining solution was removed, and the wells filled with PBS until imaging. As a positive control for senescence phenotype, one set of wells from the untreated flasks were seeded. At 70% confluence, the cells were treated with 600 μM of hydrogen peroxide in serum-free DMEM for 2 h, then incubated with standard DMEM proliferation medium for 5 days to allow the senescence phenotype to develop. The cells were fixed and stained in the same manner as the other treatment conditions.
# as §2, §3, §4, §5, §6
smiles,measurement,setting,value
"CC1(C)CCC(c2ccc(Cl)cc2)=C(CN2CCN(c3ccc(C(=O)NS(=O)(=O)c4ccc(N[C@H](CCN5CCOCC5)CSc5ccccc5)c(S(=O)(=O)C(F)(F)F)c4)cc3)CC2)C1 [NAV, Navitoclax, reference compound]",cell counts,"HDFn cells [1]; passage 31, 13 μM Navitoclax, positive control",dramatically decreased
"O=c1c(O)c(-c2ccc(O)c(O)c2)oc2cc(O)ccc12 [FIS, Fisetin, reference compound]",cell counts,"HDFn cells [1]; passage 31, 600 μM Fisetin, positive control",dramatically decreased
"OO [hydrogen peroxide, reference compound]",SAβG levels (senescence-associated β-galactosidase positive HDFn cells),"HDFn cells [2]; 600 μM hydrogen peroxide for 2 h, then 5 days, positive control for senescence phenotype",remained low
"C[N+](C)(C)[C@@H](Cc1c[nH]c(=S)[nH]1)C(=O)[O-] [EGT, L-Ergothioneine]",effect on the percentage of p16 positive HDFn cells,"HDFn cells [2]; across all three passages (22, 24, 26), EGT 0.5, 3.0, 30 μM",did not robustly affect
same,change of percentage of Ki67 positive HDFn cells compared with the untreated control,"HDFn cells [2]; all three passages (22, 24, 26), EGT 0.5, 3.0, 30 μM constant supplementation",did not result in statistically significant changes
same,senostatic effect,HDFn cells [2]; low chronic doses (0.5-30 μM) in HDFn cells,can confer senostatic effects
same,reduction of the percentage of p21 positive HDFn cells,"HDFn cells [2]; passage 22, 0.5 μM EGT, p<0.001",16.5%
same,percentage of p21 positive HDFn cells,"HDFn cells [2]; passage 22, 0.5 μM EGT, untreated 82.5%±2.3, mean±SEM",66.0%±2.4
same,reduction of the percentage of p21 positive HDFn cells,"HDFn cells [2]; passage 22, 3 μM EGT, p<0.001",20.1%
same,reduction of the percentage of p21 positive HDFn cells,"HDFn cells [2]; passage 22, 30 μM EGT, p<0.001",21.8%
same,reduction in p16-positive cells,"HDFn cells [2]; passage 24, 0.5 μM EGT, p<0.001",15%
same,change of percentage of p21 positive HDFn cells,"HDFn cells [2]; passage 24 or 26, EGT 0.5, 3.0, 30 μM",did not result in statistically significant changes
same,percentage of SAβG positive HDFn cells,"HDFn cells [2]; passage 26, 0.5 μM EGT, p<0.001",4.8%±5.7
same,percentage of SAβG positive HDFn cells,"HDFn cells [2]; passage 26, 3.0 μM EGT, p<0.001",3.5%±2.0
same,percentage of SAβG positive HDFn cells,"HDFn cells [2]; passage 26, 30 μM EGT, p<0.001",5.0%±2.9
same,mean SAβG reduction,"HDFn cells [2]; passage 26, mean over 0.5, 3.0 and 30 μM EGT",50%
same,senolytic activity,"HDFn cells [1]; HDFn cells at passage 31, at up to 300 μM",not senolytic
same,Ki67-positive population,"HDFn cells [1]; passage 31, 30 μM EGT",9.2%±3.8
same,percentage of p21 positive HDFn cells,"HDFn cells [1]; passage 31, 30 μM EGT",29.1%±7.4
same,percentage of p16 positive HDFn cells,"HDFn cells [1]; passage 31, 30 μM EGT",7.0%±2.8
same,Ki67-positive population,"HDFn cells [1]; passage 31, 300 μM EGT",11.4%±2.6
same,percentage of p21 positive HDFn cells,"HDFn cells [1]; passage 31, 300 μM EGT",27.0%±2.0
same,percentage of p16 positive HDFn cells,"HDFn cells [1]; passage 31, 300 μM EGT",11.7%±5.9
same,cell counts,"HDFn cells [1]; passage 31, 3, 30 and 300 μM EGT vs 0 μM",did not change much
same,effect on the percentage of SAβG positive HDFn cells,"HDFn cells [1]; passage 31, EGT 3, 30, 300 μM, any timepoint",no statistically significant effect
